One molecule from patent US9365572B2, “PI3K and/or mTOR inhibitor” (XUANZHU PHARMA CO., LTD., priority 2012, dated 2016) can be followed below.

Bounds are passed on as bounds.

In one assay the target is AXL (Homo sapiens (Human), UniProt P30530). In words: Kinase selectivity, Mobility shift assay. Format: biochemical. On the procedure: (§1) Object: In this assay, the inhibitory activity of the test substance on the kinases listed in Table 3 was determined, and therefore the selectivity of the present compound was determined.
(§2) Except for the BRAF V600E kinase in Table 3, the Mobility shift assay was used for other kinases.
(§3) 1. Preparation of Agents:
(§4) • 1.1 1-fold kinase buffer without MnCl2: 50 mM HEPES, pH 7.5, 0.0015% Brij-35, 10 mM MgCl2, 2 mM DTT. • 1.2 1-fold kinase buffer with MnCl2: 50 mM HEPES, pH 7.5, 0.0015% Brij-35, 10 mM MgCl2, 10 mM MnCl2, 2 mM DTT. • 1.3 Termination solution: 100 mM HEPES, pH 7.5, 0.0015% Brij-35, 0.2% Coating Reagent#3, 50 mM EDTA. • 1.4 2.5-fold kinase solution: The kinase was added to the 1-fold kinase buffer to form a 2.5-fold kinase solution. • 1.5 2.5-fold substrate solution: FAM fluorescence-labelled polypeptide and ATP were added to the 1-fold kinase buffer to form a 2.5-fold substrate solution. 2. Preparation of 5-fold compound
(§5) The final test concentration of the compound was 10 μM at maximum. Firstly, a 50-fold concentration (i.e. 500 μM) was prepared with 100% DMSO. The compound was diluted with 100% DMSO by 5 folds at 5 concentrations (successively 500 μM, 100 μM, 20 μM, 4 μM, and 0.8 μM). After diluting with 1-fold kinase buffer by 10 folds, 5 μl of the samples were transferred to a 384-well reaction plate. Two negative control wells and two positive control wells were set at each line respectively. Replication was made in a 96-well plate in five concentrations of 5-fold compound. 10% DMSO was added to the positive control well, and 5 μl of EDTA (250 mM) was added to the negative control well.
(§6) • 3.1 To the 384-well reaction plate was added 5-fold compound dissolved in 10% DMSO at 5 μl/well. • 3.2 To the 384-well reaction plate was added 2.5-fold kinase solution at 10 μl/well. […] 4. […] 2. […] 3. […] 4.

The next assay concerns the target ERK2 (Homo sapiens (Human), UniProt P28482). In words: Kinase selectivity, Mobility shift assay. Format: biochemical. As to the method: as §1, §2, §3, §4, §5, §6
The target in another assay is EphA1 (Homo sapiens (Human), UniProt P21709). In words: Kinase selectivity, Mobility shift assay. Format: biochemical. As to the method: as §1, §2, §3, §4, §5, §6
The next assay addresses FLT3 (Homo sapiens (Human), UniProt P36888). In words: Kinase selectivity, Mobility shift assay. It counts as biochemical. On the procedure:
as §1, §2, §3, §4, §5, §6

A further assay has as its target IRAK4 (Homo sapiens (Human), UniProt Q9NWZ3). The experiment in a line: Kinase selectivity, Mobility shift assay. Format: biochemical. As to the method:
as §1, §2, §3, §4, §5, §6

The target of another assay is LCK (Homo sapiens (Human), UniProt P06239). In words: Kinase selectivity, Mobility shift assay. Format: biochemical. On the procedure: as §1, §2, §3, §4, §5, §6
The target of another assay is PKACa (Homo sapiens (Human), UniProt P17612). The experiment in a line: Kinase selectivity, Mobility shift assay. It counts as biochemical. On the procedure:
as §1, §2, §3, §4, §5, §6

In the next assay the target is RSK2 (Homo sapiens (Human), UniProt P51812). In words: Kinase selectivity, Mobility shift assay. It counts as biochemical. As to the method:
as §1, §2, §3, §4, §5, §6

A further assay addresses TAOK2 (Homo sapiens (Human), UniProt Q9UL54). In words: Kinase selectivity, Mobility shift assay. Format: biochemical. On the procedure:
as §1, §2, §3, §4, §5, §6

Assay [1] has as its system Calcium Channel L-Type, Dihydropyridine. The experiment in a line: Radioligand binding assay No. 214600. The following applies: test substance 10 μM; rat.
Assay [2] has as its system kinases listed in Table 3. The experiment in a line: Kinase selectivity, whole panel of Table 3. It counts as biochemical. The following applies: summary in words. As to the method: as §1, §2, §4
The final test concentration of the compound was 10 μM at maximum. Firstly, a 50-fold concentration (i.e. 500 μM) was prepared with 100% DMSO. The compound was diluted with 100% DMSO by 5 folds at 5 concentrations (successively 500 μM, 100 μM, 20 μM, 4 μM, and 0.8 μM). […]
• 3.1 To the 384-well reaction plate was added 5-fold compound dissolved in 10% DMSO at 5 μl/well. • 3.2 To the 384-well reaction plate was added 2.5-fold kinase solution at 10 μl/well. […] The conversion was read from Caliper. […]

Sequence of AXL (P30530 26-894, species assumed): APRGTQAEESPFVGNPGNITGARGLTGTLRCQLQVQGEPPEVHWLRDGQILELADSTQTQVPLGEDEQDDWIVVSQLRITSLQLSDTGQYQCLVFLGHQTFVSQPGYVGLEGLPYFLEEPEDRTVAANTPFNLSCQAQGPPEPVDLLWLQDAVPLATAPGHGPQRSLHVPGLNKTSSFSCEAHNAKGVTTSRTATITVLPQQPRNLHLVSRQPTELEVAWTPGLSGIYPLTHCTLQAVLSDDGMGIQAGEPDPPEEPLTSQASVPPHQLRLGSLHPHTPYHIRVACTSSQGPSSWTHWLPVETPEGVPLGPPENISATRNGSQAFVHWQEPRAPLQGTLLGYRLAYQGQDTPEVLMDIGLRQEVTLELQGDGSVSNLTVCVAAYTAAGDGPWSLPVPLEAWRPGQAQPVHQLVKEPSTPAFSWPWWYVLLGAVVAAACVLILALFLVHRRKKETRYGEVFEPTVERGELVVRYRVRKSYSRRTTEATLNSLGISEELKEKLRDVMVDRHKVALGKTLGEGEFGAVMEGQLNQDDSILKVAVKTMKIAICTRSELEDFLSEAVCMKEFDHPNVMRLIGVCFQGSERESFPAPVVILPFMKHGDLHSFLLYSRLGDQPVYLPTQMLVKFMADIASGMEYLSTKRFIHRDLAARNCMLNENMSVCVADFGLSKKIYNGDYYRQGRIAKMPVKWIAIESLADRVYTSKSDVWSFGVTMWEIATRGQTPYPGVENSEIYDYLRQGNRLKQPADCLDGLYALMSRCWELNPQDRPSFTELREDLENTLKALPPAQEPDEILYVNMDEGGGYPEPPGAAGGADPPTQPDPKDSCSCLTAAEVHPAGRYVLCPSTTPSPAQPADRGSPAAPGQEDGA
Sequence of RSK2 (P51812 whole entry, species assumed): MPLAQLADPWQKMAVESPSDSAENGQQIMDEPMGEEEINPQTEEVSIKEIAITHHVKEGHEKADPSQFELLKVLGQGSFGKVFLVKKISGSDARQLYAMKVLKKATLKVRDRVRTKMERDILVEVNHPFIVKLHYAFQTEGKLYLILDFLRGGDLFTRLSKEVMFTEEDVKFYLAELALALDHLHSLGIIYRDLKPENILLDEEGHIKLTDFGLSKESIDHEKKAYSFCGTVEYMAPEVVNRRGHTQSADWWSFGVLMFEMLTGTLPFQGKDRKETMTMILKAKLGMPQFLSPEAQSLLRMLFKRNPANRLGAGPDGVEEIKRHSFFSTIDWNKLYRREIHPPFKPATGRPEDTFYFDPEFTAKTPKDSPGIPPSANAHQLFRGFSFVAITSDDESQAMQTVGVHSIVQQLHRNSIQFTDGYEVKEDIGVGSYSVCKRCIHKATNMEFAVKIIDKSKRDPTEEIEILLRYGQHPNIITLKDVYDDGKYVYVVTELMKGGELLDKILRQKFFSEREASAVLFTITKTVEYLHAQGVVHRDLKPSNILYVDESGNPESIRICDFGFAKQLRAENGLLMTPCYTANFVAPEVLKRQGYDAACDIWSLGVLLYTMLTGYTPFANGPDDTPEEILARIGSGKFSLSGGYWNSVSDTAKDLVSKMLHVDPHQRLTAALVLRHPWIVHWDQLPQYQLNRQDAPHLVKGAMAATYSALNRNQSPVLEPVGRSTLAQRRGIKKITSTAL
Sequence of IRAK4 (Q9NWZ3 whole entry, species assumed): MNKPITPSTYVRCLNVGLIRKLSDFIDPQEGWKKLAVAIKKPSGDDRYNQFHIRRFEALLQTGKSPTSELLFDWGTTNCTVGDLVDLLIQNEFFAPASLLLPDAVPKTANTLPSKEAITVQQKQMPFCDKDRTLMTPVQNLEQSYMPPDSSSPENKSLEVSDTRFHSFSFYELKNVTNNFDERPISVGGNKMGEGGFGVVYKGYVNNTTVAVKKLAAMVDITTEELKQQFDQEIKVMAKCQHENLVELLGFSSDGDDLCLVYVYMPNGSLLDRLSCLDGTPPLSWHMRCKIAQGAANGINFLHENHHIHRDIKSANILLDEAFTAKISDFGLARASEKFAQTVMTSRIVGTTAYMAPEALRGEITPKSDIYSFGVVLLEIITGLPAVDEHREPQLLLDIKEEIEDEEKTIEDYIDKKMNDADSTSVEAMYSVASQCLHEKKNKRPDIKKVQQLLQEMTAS
Sequence of LCK (P06239 whole entry, species assumed): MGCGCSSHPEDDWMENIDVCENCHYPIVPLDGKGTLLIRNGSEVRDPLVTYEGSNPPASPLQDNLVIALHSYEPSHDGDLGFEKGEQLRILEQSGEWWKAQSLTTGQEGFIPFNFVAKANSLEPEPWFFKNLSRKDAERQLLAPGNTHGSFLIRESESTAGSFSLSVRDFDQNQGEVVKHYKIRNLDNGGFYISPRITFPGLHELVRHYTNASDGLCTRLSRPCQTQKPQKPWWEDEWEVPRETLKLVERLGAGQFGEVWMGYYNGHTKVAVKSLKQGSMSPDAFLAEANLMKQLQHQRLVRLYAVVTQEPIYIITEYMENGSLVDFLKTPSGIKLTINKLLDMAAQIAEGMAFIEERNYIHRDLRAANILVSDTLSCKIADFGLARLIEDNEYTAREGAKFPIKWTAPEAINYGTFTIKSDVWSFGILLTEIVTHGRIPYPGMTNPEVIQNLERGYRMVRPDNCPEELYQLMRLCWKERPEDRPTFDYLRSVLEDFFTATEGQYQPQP
Sequence of FLT3 (P36888 27-993, species assumed): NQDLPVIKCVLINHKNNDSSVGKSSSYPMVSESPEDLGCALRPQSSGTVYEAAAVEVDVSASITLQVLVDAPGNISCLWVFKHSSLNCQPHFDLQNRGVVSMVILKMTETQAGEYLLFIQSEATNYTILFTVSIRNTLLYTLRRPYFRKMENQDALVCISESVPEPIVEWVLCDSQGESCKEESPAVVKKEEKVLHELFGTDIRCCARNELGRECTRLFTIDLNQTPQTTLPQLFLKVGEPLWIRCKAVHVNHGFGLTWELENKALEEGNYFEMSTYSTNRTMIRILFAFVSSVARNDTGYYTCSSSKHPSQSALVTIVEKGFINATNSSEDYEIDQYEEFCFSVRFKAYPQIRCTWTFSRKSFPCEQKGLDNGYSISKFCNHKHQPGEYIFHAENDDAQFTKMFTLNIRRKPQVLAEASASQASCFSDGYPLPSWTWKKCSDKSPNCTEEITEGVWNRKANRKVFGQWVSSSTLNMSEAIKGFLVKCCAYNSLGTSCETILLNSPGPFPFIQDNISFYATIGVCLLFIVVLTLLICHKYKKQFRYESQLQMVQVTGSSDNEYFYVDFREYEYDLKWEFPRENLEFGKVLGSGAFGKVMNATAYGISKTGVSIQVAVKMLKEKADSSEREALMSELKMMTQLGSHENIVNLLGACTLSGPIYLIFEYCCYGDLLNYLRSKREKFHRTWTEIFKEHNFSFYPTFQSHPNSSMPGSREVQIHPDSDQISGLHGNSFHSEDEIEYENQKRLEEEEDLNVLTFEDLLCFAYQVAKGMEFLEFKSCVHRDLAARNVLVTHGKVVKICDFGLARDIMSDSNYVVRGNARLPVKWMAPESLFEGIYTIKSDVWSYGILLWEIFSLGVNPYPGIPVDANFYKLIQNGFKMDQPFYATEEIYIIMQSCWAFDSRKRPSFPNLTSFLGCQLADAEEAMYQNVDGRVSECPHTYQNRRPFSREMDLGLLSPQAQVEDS
Sequence of TAOK2 (Q9UL54 whole entry, species assumed): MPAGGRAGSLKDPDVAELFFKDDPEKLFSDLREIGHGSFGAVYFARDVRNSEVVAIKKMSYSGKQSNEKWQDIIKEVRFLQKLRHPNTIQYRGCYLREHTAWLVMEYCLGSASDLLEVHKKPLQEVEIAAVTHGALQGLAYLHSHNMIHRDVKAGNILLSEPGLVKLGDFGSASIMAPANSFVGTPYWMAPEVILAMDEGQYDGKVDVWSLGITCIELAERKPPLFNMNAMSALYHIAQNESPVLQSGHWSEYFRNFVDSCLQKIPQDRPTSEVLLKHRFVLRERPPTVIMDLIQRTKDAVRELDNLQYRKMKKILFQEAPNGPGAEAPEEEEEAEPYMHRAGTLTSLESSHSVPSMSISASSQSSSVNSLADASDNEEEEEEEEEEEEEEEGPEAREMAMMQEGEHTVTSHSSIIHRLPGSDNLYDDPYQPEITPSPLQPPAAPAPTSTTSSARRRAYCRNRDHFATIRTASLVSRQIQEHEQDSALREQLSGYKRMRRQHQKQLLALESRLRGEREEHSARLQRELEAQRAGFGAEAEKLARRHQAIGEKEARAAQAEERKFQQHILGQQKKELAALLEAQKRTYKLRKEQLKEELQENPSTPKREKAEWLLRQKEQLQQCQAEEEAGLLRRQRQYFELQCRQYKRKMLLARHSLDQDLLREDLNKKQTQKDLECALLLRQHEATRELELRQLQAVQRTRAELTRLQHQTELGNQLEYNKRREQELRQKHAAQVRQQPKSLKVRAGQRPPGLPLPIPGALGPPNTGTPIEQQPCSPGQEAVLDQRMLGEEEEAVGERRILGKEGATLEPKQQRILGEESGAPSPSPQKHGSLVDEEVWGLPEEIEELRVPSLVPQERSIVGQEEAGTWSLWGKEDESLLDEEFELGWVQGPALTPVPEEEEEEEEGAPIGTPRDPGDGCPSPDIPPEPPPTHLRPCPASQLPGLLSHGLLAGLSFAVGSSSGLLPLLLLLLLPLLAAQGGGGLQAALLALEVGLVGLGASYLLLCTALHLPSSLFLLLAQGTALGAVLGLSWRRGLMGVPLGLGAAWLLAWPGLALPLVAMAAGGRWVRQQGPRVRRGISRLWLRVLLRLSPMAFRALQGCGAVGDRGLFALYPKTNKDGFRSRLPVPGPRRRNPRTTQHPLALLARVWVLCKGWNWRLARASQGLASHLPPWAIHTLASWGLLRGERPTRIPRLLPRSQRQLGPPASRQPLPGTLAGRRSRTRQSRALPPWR

A word on the IC50: it is the concentration needed to halve the response being measured. In the case of `Nc1ccc(-c2ccc3ncc4c(=O)[nH]c(=O)n(-c5cccc(C(F)(F)F)c5)c4c3n2)cn1` [Compound 5, 9-(6-aminopyridin-3-yl)-1-(3-(trifluoromethyl)phenyl)pyrimido[5,4-c][1,5]naphthyridine-2,4(1H,3H)-dione], the IC50 on AXL was 2140 nM; at ERK2, greater than 10000 nM; on EphA1 it was 1470 nM; at FLT3 it was 6250 nM; on IRAK4, greater than 10000 nM; on LCK, 1130 nM. For the same molecule, the IC50 at PKACa, at RSK2 and at TAOK2 was greater than 10000 nM each time. Besides, in assay [1], the “Inhibitory rate (%), Calcium Channel L-Type, Dihydropyridine” value is on record as 56%. For the same molecule, the “inhibitory activity for the kinases listed in Table 3” value in [2] is “no inhibitory activity”.
